Experiments:
Assay type in all cases: cell-based
[1] = tested on: HCV genotype 1a replicon, NS5A Q30H; assay: Transient replication assay, GT1a NS5A Q30H; conditions: Hepatitis C virus
[2] = tested on: HCV genotype 1a replicon, NS5A M28T Q30H; assay: Transient replication assay, GT1a NS5A M28T Q30H; conditions: Hepatitis C virus
GT2a-2b-MD2b replicon = assay: Stable replicon assay, comparison to daclatasvir, GT2a-2b-MD2b; conditions: Hepatitis C virus
Text: The plasmid pSG-hRlucNeo-JFH1 was generated from pSG-Neo-JFH1 (Kato et al. 2003, Gastroentrology 125:1808-1817). A fragment containing the JFH-1 5′ NTR-hRluc-Neo gene and two unique restriction sites (AgeI and PmeI) was synthesized (Integrated DNA Technologies, Coralville, Iowa). The resulting plasmid was digested with AgeI and PmeI and the excised fragment (5′NTR-hRluc-Neo) was ligated into pSG-Neo-JFH1 digested with the same enzymes to generate pSG-hRlucNeo-JFH1. To allow expression of heterologous NS5A sequences, an NS5A shuttle vector was generated from pSG-Neo-JFH1, in which the entire coding sequence of NS5A plus the first eight codons of NS5B were replaced with an AfeI restriction site. This was done by Infusion cloning (Clontech, Mountain View, Calif.) from two PCR products that were generated using pSG-Neo-JFH1 as a template and the following primer pairs: […]
Stable HCV replicon cell lines were grown in complete media (Dulbecco's modified Eagle medium [DMEM], 2 mM L-glutamine, 0.1 mM essential amino acids, 1 mM sodium pyruvate, 10% fetal bovine serum) with the addition 500 μg/ml […] (G418). […] For stable and transient replicon assays, luciferase activity of compound-treated cells was measured relative to DMSO-treated cells after 72 h incubation using RENILLA-GLO™ Luciferase Assay (Promega). […]

[3] = tested on: HCV genotype 1a replicon, NS5A Q30R; assay: Transient replication assay, GT1a NS5A Q30R; conditions: Hepatitis C virus
GT1a-H77 replicon = assay: Stable replicon assay, comparison to daclatasvir, GT1a-H77; conditions: Hepatitis C virus; Replicon GT1a-H77, NS5A genotype 1a
Method: Stable HCV replicon cell lines were grown in complete media (Dulbecco's modified Eagle medium [DMEM], 2 mM L-glutamine, 0.1 mM essential amino acids, 1 mM sodium pyruvate, 10% fetal bovine serum) with the addition 500 μg/ml […] (G418). Huh7-lunet cells were maintained in the same medium without the addition of G418. Cells were routinely passaged at a dilution of 1:5 two times per week. For stable replicon assays (GT1a-H77, GT1b-Con1, GT2a-JFH, GT2a-J6, GT2a-2b-MD2b, GT2a-2b-J8, GT2a-3a-S52, GT3a-552, GT4a-ED43, GT2a-5a-SA13, GT2a-6a-EUKH2, GT2a-6a-HK6a, and GT2a-7a-QC69), an 8-point 3-fold or half-log dilution series of compound was transferred into three replica 96-well plates containing 1×10^4 cells per well in phenol red-free complete media without G418. For the transient replication assay, Huh7-lunet cells in ice-cold phosphate buffered saline (PBS) were electroporated (Bio-Rad Gene pulser: 950 uF, 270V) with 10 μg purified in vitro transcribed HCV replicon RNA, followed by resuspension in phenol red-free complete media without G418 and plating (1×10^4 cells in 200 μL media/well) into three replica 96-well plates prior to compound addition (1 μl compound per well). For stable and transient replicon assays, luciferase activity of compound-treated cells was measured relative to DMSO-treated cells after 72 h incubation using RENILLA-GLO™ Luciferase Assay (Promega). […]

[4] = tested on: HCV genotype 1a replicon, NS5A K24N Q30R; assay: Transient replication assay, GT1a NS5A K24N Q30R; conditions: Hepatitis C virus

## COC(=O)N[C@H](C(=O)N1C[C@]2(CCCOC2)C[C@H]1c1ncc(-c2ccc(-c3ccc4c(ccc5nc([C@@H]6C[C@@H]7CCC[C@@H]7N6C(=O)[C@@H](NC(=O)OC)C(C)C)[nH]c54)c3)cc2)[nH]1)C(C)C [Compound 16]
[1]
  EC50: 0.006 nM
[2]
  EC50: 24 nM
GT2a-2b-MD2b replicon
  EC50: 21 nM
[3]
  EC50: 0.012 nM
GT1a-H77 replicon
  EC50: 0.007 nM
[4]
  EC50: 1.2 nM

## COC(=O)N[C@H](C(=O)N1CCC[C@H]1c1nc(-c2ccc(-c3ccc(-c4c[nH]c([C@@H]5CCCN5C(=O)[C@@H](NC(=O)OC)C(C)C)n4)cc3)cc2)c[nH]1)C(C)C [Daclatasvir, reference compound]
[1]
  EC50: 0.8 nM
[2]
  EC50: 733 nM
GT2a-2b-MD2b replicon
  EC50: 33 nM
[3]
  EC50: 3.4 nM
GT1a-H77 replicon
  EC50: 0.06 nM
[4]
  EC50: 8 nM
